Measured values reported in patent US4931447A, “Cycloalkylamides of (8β)-1-alkyl-6-(substituted) ergolines” (Eli Lilly and Company, priority 1989, dated 1990).

Test system: Male Rats
Experiment: Copulatory performance of male rats, oral administration (Tables V, VI)
Assay type: in vivo, rat (male Sprague-Dawley)
Settings: for Postejaculatory Latency / Ejaculatory Latency: 90 min before test, seconds per Table III; for Copulatory Rate: number of mounts per minute
Description: Adult male rats of the Sprague-Dawley strain were used in these studies. The sexual behavior evaluations were conducted at 2-week intervals beginning at 6 months of age and ending at 12 months of age. During the initial screening process, the male rats of various levels of sexual performance were selected for compound testing. […] Prior to treatment with a drug solution, each male rat was required to have at least two consecutive vehicle tests with similar sexual performance. Following each compound testing, additional vehicle tests were performed.
The mating tests were performed during the dark phase of the lighting cycle using red light illumination. Each behavioral test was initiated with the introduction of a receptive female rat into the arena and was terminated either 30 minutes later or immediately following the first postejaculatory mount. The indiees of mating performance that were evaluated for the rats capable of ejaculation included mount latency (the time interval from the introduction of the female rat to the first mount); intromission latency (the time interval from the introduction of the female rat to the first intromission); ejaculatory latency (the time interval from intromission to ejaculation); postejaculatory interval (the time from ejaculation to the next mount); mount frequency (the total number of mounts with or without intromission prior to ejaculation); intromission frequency (the number of mounts with intromission prior to ejaculation); intromission efficiency (the intromission frequency divided by the mount frequency); copulatory rate (the number of mounts per minute); copulatory frequency (the number of mounts prior to ejaculation); and copulatory efficiency (the number of mounts with intromission divided by the total number of mounts).
Each male rat was given a solution containing either the vehicle alone in water or the compound of Example 1, (8β)-N-cyclohexyl-1-isopropyl-6-methylergoline-8-carboxamide, in the same vehicle. Vehicle was made of 1 mM (millimolar) acetic acid and 1 mM ascorbic acid.
The results of these studies are set forth below in Tables II-VII. In the Tables "N" is the number of animals used to generate the data, the average of which is provided. The specific description of the test performed is set forth in the heading of the Tables.
All solutions were administered by gavage 90 minutes prior to testing.
Control responses were obtained from the same rats 2 weeks earlier
following vehicle administration by gavage.

For `CC(C)n1cc2c3c(cccc31)[C@H]1C[C@@H](C(=O)NC3CCCCC3)CN(C)[C@@H]1C2` [Example 1, (8β)-N-Cyclohexyl-1-isopropyl-6-methylergoline-8-carboxamide], the “Postejaculatory Latency” value (0.01 mcg/kg oral gavage, N = 17, control 358.5 ± 23.1) was 370.2 ± 23.7, the “Ejaculatory Latency” value (0.01 mcg/kg oral gavage, N = 17, control 713.6 ± 58.1, significant (*)) was 689.2 ± 91.2 and the “Copulatory Efficiency” value (0.01 mcg/kg oral gavage, N = 17, control 0.43 ± 0.04) was 0.46 ± 0.05. For the same compound, the “Mount Frequency” value (0.01 mcg/kg oral gavage, N = 17, control 29.7 ± 2.9, significant (*)) was 27.5 ± 4.4, the “Copulatory Rate” value (0.01 mcg/kg oral gavage, N = 17, control 2.5 ± 0.2) was 2.3 ± 0.2 and the “Postejaculatory Latency” value (0.1 mcg/kg oral gavage, N = 14, control 381.9 ± 13.4, significant (*)) was 313.4 ± 12.0. For the same compound, the “Ejaculatory Latency” value (0.1 mcg/kg oral gavage, N = 14, control 735.4 ± 51.9, significant (*)) was 486.5 ± 70.8, the “Copulatory Efficiency” value (0.1 mcg/kg oral gavage, N = 14, control 0.60 ± 0.05) was 0.60 ± 0.05 and the “Mount Frequency” value (0.1 mcg/kg oral gavage, N = 14, control 19.4 ± 2.4) was 18.7 ± 2.1. The “Copulatory Rate” value (0.1 mcg/kg oral gavage, N = 14, control 1.7 ± 0.2, significant (*)) was 2.5 ± 0.4, the “Postejaculatory Latency” value (1.0 mcg/kg oral gavage, N = 8, control 384.1 ± 23.5) was 322.1 ± 15.3 and the “Ejaculatory Latency” value (1.0 mcg/kg oral gavage, N = 8, control 646.3 ± 51.0) was 415.9 ± 62.3. The “Copulatory Efficiency” value (1.0 mcg/kg oral gavage, N = 8, control 0.59 ± 0.06) was 0.58 ± 0.04, the “Mount Frequency” value (1.0 mcg/kg oral gavage, N = 8, control 21.1 ± 3.9, significant (*)) was 16.8 ± 1.8 and the “Copulatory Rate” value (1.0 mcg/kg oral gavage, N = 8, control 2.0 ± 0.4) was 2.7 ± 0.4. For the same compound, the “Postejaculatory Latency” value (10.0 mcg/kg oral gavage, N = 12, control 345.1 ± 20.3, significant (*)) was 299.7 ± 15.1, the “Ejaculatory Latency” value (10.0 mcg/kg oral gavage, N = 12, control 731.0 ± 87.0, significant (*)) was 434.2 ± 37.9 and the “Copulatory Efficiency” value (10.0 mcg/kg oral gavage, N = 12, control 0.43 ± 0.03) was 0.49 ± 0.04. The “Mount Frequency” value (10.0 mcg/kg oral gavage, N = 12, control 25.9 ± 1.6) was 22.9 ± 1.2, the “Copulatory Rate” value (10.0 mcg/kg oral gavage, N = 12, control 2.2 ± 0.2, significant (*)) was 3.3 ± 0.3 and the “Postejaculatory Latency” value (100.0 mcg/kg oral gavage, N = 8, control 417.9 ± 28.4) was 350.6 ± 29.5. For the same compound, the “Ejaculatory Latency” value (100.0 mcg/kg oral gavage, N = 8, control 804.6 ± 73.5, significant (*)) was 366.1 ± 52.2, the “Copulatory Efficiency” value (100.0 mcg/kg oral gavage, N = 8, control 0.51 ± 0.06, significant (*)) was 0.69 ± 0.04 and the “Mount Frequency” value (100.0 mcg/kg oral gavage, N = 8, control 19.4 ± 1.7, significant (*)) was 14.4 ± 1.3. For the same compound, the “Copulatory Rate” value (100.0 mcg/kg oral gavage, N = 8, control 1.4 ± 0.1, significant (*)) was 2.6 ± 0.4.
